Test results reported in patent US3966850A, “O-ethyl-S-n-propyl-O-(2-bromo-4-cyanophenyl)-thionothiol-phosphoric acid ester” (priority 1973, dated 1976).

Key:
[1] = system: insects; conditions: known from U.S. Pat. No. 3,607,991; cited from earlier work
[2] = system: insects and mites (Acarina); assay: Insecticidal and acaricidal activity (statement in words); assay type: in vivo; conditions: sucking and biting insects and mites (Acarina)
[3] = Toxicity test/peroral (LD50, evaluation after 7 days); conditions: rat, in vivo, po
Description: Test animal: Albino rat (Rattus norvegicus)
Dosing was effected volumetrically after weighing the test animals. A steel knob-ended probe was used for oral administration.

[4] = system: warm-blooded animals; assay: Toxicity to warm-blooded animals (statement in words); assay type: in vivo; conditions: as compared to prior art compounds of analogous structure and same type of action

CCOP(=S)(OCC)Oc1ccc(C#N)cc1 [Compound A, O,O-diethyl-O-(4-cyanophenyl)-thionophosphoric acid ester]
insecticidal activity [1]: possess insecticidal activity

CCCSP(=S)(OCC)Oc1ccc(C#N)cc1Br (stereo not shown) [I, O-ethyl-S-n-propyl-O-(2-bromo-4-cyanophenyl)-thionothiol-phosphoric acid ester]
insecticidal and acaricidal activity [2]: good insecticidal and acaricidal activity
LD50 at 168 h [3]: 100 to 250 mg/kg
toxicity to warm-blooded animals [4]: very low toxicity
